Data reported in patent publication US8017631B2, “Oxadiazole derivatives and their medical use” (Neurosearch A/S, priority 2005, dated 2011).

Legend:
[1] = target: T1, human nicotinic acetylcholine receptor subtype α4β2 (Homo sapiens, UniProt P17787+P43681); assay: Characterization of hα4β2 positive allosteric modulators using FLIPR; type: cell-based
T1 construct: expressed in transfected cells; host or cells: human HEK cells
Procedure: The ability is determined relative to a maximal nicotine response (normally 100 μM). The activity is determined as a standard assay using a fluorometric method in a Fluorescent Image Plate Reader (FLIPR) as described below in more detail.
Full concentration/response curves are generated and EC50 values are calculated based on peak values. EC50 values (Effective Concentration) represent the concentration of the test substance, at which the nicotine-induced EC20-30 response is positively modulated such that the size of the response equals 50% of a maximal nicotine control response. The maximal positively modulated response is determined relative to the reference (nicotine) response.

T1 sequence (P43681 29-627 limits assumed): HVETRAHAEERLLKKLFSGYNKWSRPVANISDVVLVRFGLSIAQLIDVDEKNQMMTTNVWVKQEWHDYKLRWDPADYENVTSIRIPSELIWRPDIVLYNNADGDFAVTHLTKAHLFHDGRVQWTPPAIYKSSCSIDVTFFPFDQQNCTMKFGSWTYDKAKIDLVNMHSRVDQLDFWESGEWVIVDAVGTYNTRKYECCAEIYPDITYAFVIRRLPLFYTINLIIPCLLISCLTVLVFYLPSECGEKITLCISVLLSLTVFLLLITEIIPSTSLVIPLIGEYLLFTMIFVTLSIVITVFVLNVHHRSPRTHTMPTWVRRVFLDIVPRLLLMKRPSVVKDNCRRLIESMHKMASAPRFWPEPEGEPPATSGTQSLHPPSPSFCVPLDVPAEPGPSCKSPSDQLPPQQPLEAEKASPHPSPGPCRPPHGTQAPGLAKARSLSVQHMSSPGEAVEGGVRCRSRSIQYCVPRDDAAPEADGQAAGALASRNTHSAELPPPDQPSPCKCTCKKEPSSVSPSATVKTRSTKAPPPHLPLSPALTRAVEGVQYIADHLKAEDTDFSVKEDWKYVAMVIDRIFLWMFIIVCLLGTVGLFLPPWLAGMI
T1 sequence (P17787 26-502): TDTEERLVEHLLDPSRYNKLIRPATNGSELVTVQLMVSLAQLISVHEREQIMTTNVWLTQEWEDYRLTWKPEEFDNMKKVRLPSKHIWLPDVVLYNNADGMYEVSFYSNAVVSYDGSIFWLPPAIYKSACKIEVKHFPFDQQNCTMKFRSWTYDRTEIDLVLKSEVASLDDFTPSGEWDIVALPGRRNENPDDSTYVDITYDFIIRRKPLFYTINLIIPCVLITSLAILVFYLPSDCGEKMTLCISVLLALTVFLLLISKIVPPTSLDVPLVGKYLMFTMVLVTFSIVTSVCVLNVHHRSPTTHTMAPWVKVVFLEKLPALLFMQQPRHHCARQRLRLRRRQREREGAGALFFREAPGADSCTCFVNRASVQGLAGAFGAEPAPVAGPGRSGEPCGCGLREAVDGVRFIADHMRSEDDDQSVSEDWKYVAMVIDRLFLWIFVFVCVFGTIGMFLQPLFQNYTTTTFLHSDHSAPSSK

Structure (SMILES)	Max. Response rel. to Nicotine ([1]; maximal positively modulated response relative to maximal nicotine response (normally 100 μM), HEK cells expressing hα4β2)	EC50 ([1]; positive modulation of sub-maximal nicotine (EC20-30) response, human HEK cells expressing hα4β2, peak values)	melting point
O=[N+]([O-])c1ccc(-c2nc(-c3cccnc3)no2)o1 [Compound 1, 3-(5-(5-Nitro-furan-2-yl)-[1,2,4]oxadiazol-3-yl)-pyridine]	97%	6.8 µM	–
N#Cc1ccc(-c2nc(-c3cccnc3)no2)o1 [Compound 6.2, 5-(3-Pyridin-3-yl-[1,2,4]oxadiazol-5-yl)-furan-2-carbonitrile]	–	–	141 to 144 °C
